How the values were obtained:
[1] = tested on: HIV-1 pre-integration complexes / karyopherin α; test: Binding of HIV-1 pre-integration complexes to GST-karyopherin α; type: biochemical
Protocol: Cytoplasmic lysates of H9 cells infected with HIV-1RF (upper panel) or HIV-like pseudovirions (bottom panel) were treated for 2 hours with various concentrations of CNI-H0294, and were then mixed with GST-karyopherin α immobilized on glutathione Sepharose beads. HIV-1 DNA or RNA that co-precipitated with karyopherin α was quantified as in A and B.
Cytoplasmic lysates prepared from H9 cells infected with HIV-1RF were treated with 10 μM CNI-H3094 (lane 1) or with 1 μM CNI-H0294 and 10 μM (lane 5), 5 μM (lane 4), 1 μM (lane 3), or no CNI-H3094 (lane 2). The amount of pre-integration complexes available for interaction with karyopherin α was quantified as in FIG. 10.
H9 cells were infected with equal amounts of wild-type HIV-1NLHX or with mutant HIV-1NLHX that lack Vpr (Vpr^−) or carry a mutation that inactivates the MA NLS (MA NLS^−). Infected cells were washed and incubated for 4 h. An aliquot of each sample was used to quantify the total HIV-1 DNA (FIG. 14A) and the rest was used to prepare cytoplasmic extracts. Extracts were incubated with 1 μM CNI-H0294 (FIG. 14B, lanes 2, 4, 6, 8) or were left untreated (lanes 1, 3, 5, 7). The amount of pre-integration complexes available for binding to karyopherin α was determined as in FIG. 10.
H9 cells were infected with HIV-1 or HIV-like pseudovirions (Haffar, et al., 1990, J. Virol., 64:2653-2659) at a multiplicity adjusted according to p24 content (50 ng p24 per 10^6 cells) The MA NLS^− virus contains substitutions of isoleucine residues for lysines in positions 26 and 27 of MA in an NLHX backbone (Westervelt., et al., 1992, J. Virol. 66:2577-2582), thus inactivating the NLS. The Vpr^− virus has the initiating ATG of the vpr gene changed to GTG, thus abolishing expression of this gene. The ΔMA NLS pseudovirions have leucine substituting for lysine in position 28 of MA. This mutation abrogates nuclear translocation of HIV-1 gag RNA in growth-arrested H9 cells infected with pseudovirions. After a 1 hour absorption, excess viruses or pseudovirions were washed away, and cells were incubated for an additional 2-3 hour period at 37° C. prior to analysis.
Cytoplasmic extracts were prepared by lysing cells in cold extraction buffer (10 mM KCl, 10 mM Tris-HCl [pH 7.6], 0.5 mM MgCl2, 1 μg/ml each of leupeptin and aprotinin, and 1 MM phenylmethylsulfonyl fluoride [PMSF]) by 20-30 strokes of a Dounce homogenizer under the control of phase-contrast microscopy. After removal of nuclei, cytoplasmic extract was cleared by centrifugation at 15,000 g for 10 min.
Cytoplasmic extracts prepared from HIV-1-or pseudovirion-infected H9 cells were adjusted to 0.14 M NaCl, 0.1% Tween 20 and precleared with glutathione-Sepharose beads for 30 min. at room temperature. Karyopherin α was expressed as a fusion protein with glutathione S-transferase (GST) which can bind glutathione beads in solution. GST-karyopherin α immobilized on Sepharose beads was then added (about 50 μg of immobilized karyopherin α per extract from 108 infected cells) and the mixture was incubated at room temperature for another 30 min. Beads were then pelleted by centrifugation and washed 3 times with PBS supplemented with 0.1% Tween 20, 1 μg/ml each of leupeptin and aprotinin, and 1 mM PMSF. HIV-1 DNA was isolated from the beads by SDS-proteinase K treatment with subsequent phenol-chloroform extraction, while pseudovirion gag RNA was isolated by RNazol (Biotecx Laboratories Inc.).

[2] = target: T1, recombinant RT (p51/p66 heterodimer) (Human immunodeficiency virus type 1 group M subtype B, UniProt P04585); test: Binding of [14C]-CNI-H0294 to recombinant RT in solution (immunoprecipitation); set-up: species or system HIV-1; conditions: 0.2 μM RT, 3.3 μM labeled CNI-H0294, increasing unlabeled compound
T1 construct: recombinant MA or RT (a p51/p66 heterodimer)
Protocol: Twenty nmol of [^14C]-CNI-HO294 were mixed with 0.28 nmol of recombinant MA or RT (a p51/p66 heterodimer) in 40 μl of binding buffer. Samples were incubated for 2 h at 37° C. in the presence or absence of 200 nmol of unlabeled CNI-H0294. MA and RT proteins were immunoprecipitated using protein G agarose and sheep polyclonal anti-MA (αMA) or rabbit anti-RT (αRT) sera, respectively. Pre-immune sera (PI) was used as control. Bound material was eluted from protein G using 0.1 M glycine buffer [pH 2.8] and the radioactivity in the eluate was quantified in a scintillation counter.
Recombinant RT (0.2 μM) was incubated with 3.3 μM of [^14C ]-labeled CNI-H0294 and increasing concentrations of unlabeled (cold) CNI-3094. The amount of [^14C]-CNI-H0294 that bound to RT was measured as in FIG. 11.
0.28 nanomoles of recombinant MA or RT [p66/p51 ] dimer were mixed with 20 nmol of [^14C] CNI-HO294 (specific activity 5×10^4 cpm/nmol) and incubated 2 hr at room temperature in 40 μl of binding buffer (PBS supplemented with 1% BSA, 0.1% Tween 20, 1 μg/ml leupeptin, 1 μg/ml aprotinin, 1 mM PMSF). Sheep anti-MA or rabbit anti-RT sera (both obtained from NIH AIDS Research and Reference Reagent Program) or pre-immune control sera were then added (at 1:100 dilution) and incubation continued for another 1 hr at room temperature. Immune complexes were precipitated with protein G-agarose, washed, and then eluted with 0.1 M glycine, pH 2.8. Radioactivity of the eluate was measured in a scintillation counter.

HIV-1ADA = test: Anti-HIV activity in primary human monocytes, day 9 (Table IX, FIG. 12C); type: cell-based
Protocol: Monocytes infected with HIV-1ADA were cultured in the presence of CNI-H0294 and CNI-H3094 in various concentrations. Nine days after infection, RT activity in culture supernatants was quantified. The results are presented as percent of total RT activity in untreated cultures (control). Three independent samples were assayed for each drug concentration, and the standard deviation was less than 15%.
[…] A 50% inhibitory concentration (IC50) was determined at day 9 after infection.

In the case of `COC(=O)c1cc(Nc2cc(C)nc(N)n2)cc(C(=O)OC)c1` [CNI-H3094], the “inhibition of binding of HIV-1 pre-integration complexes to karyopherin α” value ([1]; 10 μM alone (FIG. 12B, lane 1)) is reported as “did not inhibit”, the “effect on CNI-H0294 inhibition of pre-integration complex binding to karyopherin α” value ([1]; 5-fold excess over 1 μM CNI-H0294) is reported as “reduced significantly the inhibitory effect of CNI-H0294” and the “effect on CNI-H0294 inhibition of pre-integration complex binding to karyopherin α” value ([1]; 10-fold excess over 1 μM CNI-H0294) is reported as “completely eliminated the inhibitory effect”. For the same compound, the “competition with [14C]-labeled CNI-H0294 for binding to RT” value [2] was “inhibits binding of [^14C]-labeled CNI-H0294 to RT in a dose-dependent manner”, the IC50 (HIV-1ADA; Human immunodeficiency virus 1, Monocyte, 216 h, day 9 after infection, >10 μM = 50% inhibition not achieved at maximal concentration, read-out: IC50) was > 10 µM and the “effect on anti-HIV activity of CNI-H0294 in monocyte cultures” value (HIV-1ADA; RT activity nine days after infection (FIG. 12C)) was “eliminated the inhibitory effect of CNI-H0294 on HIV-1 replication”.
